Test results: patent US20110301222A1, “COMBINATION THERAPY FOR THE TREATMENT OF CANCER” (Isis Pharmaceuticals, Inc., priority 2008, published 2011)
Marks after values point to notes of the source that are not given here. In the oligonucleotide strings, read from the 5' end, every base follows the letter of its sugar. An asterisk marks phosphorothioate; unmarked linkages are phosphodiester. Other units and linkages are bracketed, terminal groups are in braces. A string of capitals states the bases alone. e = 2'-O-(2-methoxyethyl) (MOE); [5mC] = 5-methylcytosine; d = 2'-deoxy (DNA)

Columns and labels:
Format in all cases: in vivo, athymic nude mice
[1] = tested on: MDA-231 Breast Cancer Xenograft; assay: MDA-231 breast cancer xenograft tumor volume in mice; settings: for Percent Reduction in Mean Tumor Volumes (observed): Breast MDA-231, Day 33, vs. vehicle control, negative = reduction, + = increase, Taxotere 2.5 mg/kg; for Mean Tumor Volume: ASO 50 mg/kg i.v., Taxotere 2.5 mg/kg IP once weekly, from 8 days after first ASO dose
Experimental: (§1) To determine whether the eIF-4E ASO complements or enhances the activity of docetaxel, the effect of the combined use of the eIF-4E ASO and docetaxel on tumor volume in 3 human xenograft cancer models is studied as follows.
(§2) Xenograft studies are carried out as described in Graff et al. (2005) Cancer Res. 65:7462-7469. Five million human cancer cells representing non-small cell lung cancer (line A549; ATCC, accession no. CCL-185), hormone refractory prostate cancer (line PC-3; ATCC, accession no. CRL-1435), and ER-/PR-HER2-breast cancer (line MDA-231; ATCC, accession no. HTB-26) are injected subcutaneously in the flank of 6-8 week old, athymic nude mice (Harlan, Indianapolis, Ind.) in a 1:1 mixture of serum-free growth medium and matrigel (Becton Dickinson, Bedford, Mass., catalogue # 354234). Mice are monitored daily for palpable tumors.
(§3) When tumor volumes reach ˜50-100 mm^3, mice are randomized to treatment groups (Graff et al. (2007) J. Clin. Invest. 117:2638-48). Body weight is monitored each time tumors are measured.
(§4) For treatment, all mice are injected intravenously with the eIF-4E ASO in saline in a total volume of 200 μl. The ASO consists of the nucleotide sequence 5′-[…]-3′ (SEQ ID NO:1), in which every internucleoside linkage is a phosphorothioate linkage, nucleotides 1-5 and 16-20 reading from the 5′ end to the 3′ end each comprise a 2′-O-(2-methoxyethyl) sugar, nucleotides 6-15 are 2′-deoxynucleotides, every cytosine residue is a 5-methylcytosine, and which is in the form of a sodium salt. The mice are first injected with an initial loading dose of 50 mg/kg ASO for 3 consecutive days, followed by 50 mg/kg thrice weekly thereafter.
(§5) Taxotere® (docetaxel) dosing begins 8 days after the first ASO dose to allow time for reduction of eIF-4E protein expression. Mice are dosed with 2.5 or 10 mg/kg Taxotere® (Sanofi-Aventis) intraperitoneally (IP) in 1% ethanol in 5% dextrose water in a volume of 200 μl once weekly for 3 weeks.
(§6) Tumor volumes are calculated measuring the largest (L) and smallest (W) diameters with a caliper. The formula is: Volume=L×W^2×0.534. Tumor volume data are transformed to a log scale to equalize variance across time and treatment groups. The log volume data are analyzed with a two-way repeated measures analysis of variance by time and treatment using SAS PROC MIXED software (SAS Institute Inc, Cary, N.C.) using the spatial power covariance structure. Treatment groups are compared to the control group at each time point and overall. The data may be plotted as means and standard errors for each treatment group versus time. Additivity is assessed in two ways: (1) as an overall interaction effect between the ASO and Taxotere® in the repeated measures analysis, and (2) by using the Bliss Independence method on the final day of the study (C. I. Bliss (1939) Ann. Appl. Biol. 26:585-615). These two methods yield the same results.
(§7) The observed percent reductions in mean tumor volume at the conclusion of each study resulting from the various treatments are shown in Table 4. These are calculated as: […]
(§8) The “Expected if Additive” percent reductions in mean tumor volume shown in Table 4 are calculated using the Bliss Independence definition of additivity, as follows: […]

[2] = tested on: PC-3 Hormone-Refractory Prostate Cancer Xenograft; assay: PC-3 hormone-refractory prostate cancer xenograft tumor volume in mice; settings: for Mean Tumor Volume: ASO 50 mg/kg i.v., Taxotere 10 mg/kg IP once weekly, from 8 days after first ASO dose; for Percent Reduction in Mean Tumor Volumes (observed): Prostate PC3, Day 35, vs. vehicle control, negative = reduction, Taxotere 10 mg/kg
Experimental: as §1, §2, §3, §4, §5, §6, §7, §8

[3] = tested on: A549 Non-Small Cell Lung Cancer Xenograft; assay: A549 non-small cell lung cancer xenograft tumor volume in mice; settings: for Mean Tumor Volume: ASO 50 mg/kg i.v., docetaxel 10 mg/kg IP once weekly, from 8 days after first ASO dose; for Percent Reduction in Mean Tumor Volumes (observed): NSCLC A549, Day 50, vs. vehicle control, negative = reduction, docetaxel 10 mg/kg
Experimental: as §1, §2, §3, §4, §5, §6, §7, §8

Row | Compound | Percent Reduction in Mean Tumor Volumes (observed) [1] | Mean Tumor Volume ([1]; Day 5) | Mean Tumor Volume ([1]; Day 8) | Mean Tumor Volume ([1]; Day 12) | Mean Tumor Volume ([1]; Day 15) | Mean Tumor Volume ([1]; Day 19) | Mean Tumor Volume ([1]; Day 22) | Mean Tumor Volume ([1]; Day 26) | Mean Tumor Volume ([1]; Day 29) | Mean Tumor Volume ([1]; Day 33) | Mean Tumor Volume ([2]; Day 7) | Mean Tumor Volume ([2]; Day 12) | Mean Tumor Volume ([2]; Day 15) | Mean Tumor Volume ([2]; Day 19) | Mean Tumor Volume ([2]; Day 22) | Mean Tumor Volume ([2]; Day 27) | Mean Tumor Volume ([2]; Day 29) | Mean Tumor Volume ([2]; Day 33) | Mean Tumor Volume ([2]; Day 35) | Percent Reduction in Mean Tumor Volumes (observed) [2] | further results
1 | CC(=O)O[C@@]12CO[C@@H]1C[C@H](O)[C@@]1(C)C(=O)[C@H](O)C3=C(C)[C@@H](OC(=O)[C@H](O)[C@@H](NC(=O)OC(C)(C)C)c4ccccc4)C[C@@](O)([C@@H](OC(=O)c4ccccc4)[C@H]21)C3(C)C [Docetaxel, (2R,3S)—N-carboxy-3-phenylisoserine,N-tert-butyl ester, 13-ester with 5β-20-epoxy-1,2α,4,7β,10β,13α-hexahydroxytax-11-en-9-one 4-acetate 2-benzoate, trihydrate, reference compound] | −1.4% | 78.7 mm^3 | 130.1 mm^3 | 180.9 mm^3 | 221.0 mm^3 | 270.3 mm^3 | 333.9 mm^3 | 384.9 mm^3 | 450.4 mm^3 | 529.6 mm^3 | 46.3 mm^3 | 106.8 mm^3 | 134.7 mm^3 | 164.8 mm^3 | 171.7 mm^3 | 157.4 mm^3 | 162.7 mm^3 | 161.6 mm^3 | 167.0 mm^3 | −69.5%* | Mean Tumor Volume ([3]; Day 7): 49.7 mm^3; Mean Tumor Volume ([3]; Day 10): 56.7 mm^3; Mean Tumor Volume ([3]; Day 15): 114.8 mm^3; Mean Tumor Volume ([3]; Day 18): 70.0 mm^3; Mean Tumor Volume ([3]; Day 22): 135.8 mm^3; Mean Tumor Volume ([3]; Day 25): 170.1 mm^3; Mean Tumor Volume ([3]; Day 29): 257.0 mm^3; Mean Tumor Volume ([3]; Day 32): 261.5 mm^3; Mean Tumor Volume ([3]; Day 36): 290.0 mm^3; Mean Tumor Volume ([3]; Day 39): 282.3 mm^3; Mean Tumor Volume ([3]; Day 43): 342.6 mm^3; Mean Tumor Volume ([3]; Day 46): 310.2 mm^3; Mean Tumor Volume ([3]; Day 50): 343.8 mm^3; Percent Reduction in Mean Tumor Volumes (observed) [3]: −29.6%
2 | d(P-thio) ([2′-O-(2-methoxyethyl)] m5rU-([2′-O-(2-methoxyethyl)] rG-([2′-O-(2-methoxyethyl)] m5rU-([2′-O-(2-methoxyethyl)] m5rC-([2′-O-(2-methoxyethyl)] rA-T-A-T-T-m5C-m5C-T-G-G-A-([2′-O-(2-methoxyethyl)] m5rU-([2′-O-(2-methoxyethyl)] m5rC-([2′-O-(2-methoxyethyl)] m5rC-([2′-O-(2-methoxyethyl)] m5rU-([2′-O-(2-methoxyethyl)] m5rU) (antisense eT*eG*eT*e[5mC]*eA*dT*dA*dT*dT*d[5mC]*d[5mC]*dT*dG*dG*dA*eT*e[5mC]*e[5mC]*eT*eT) [eIF-4E ASO] | +16.6% | 78.9 mm^3 | 129.4 mm^3 | 166.6 mm^3 | 221.0 mm^3 | 268.2 mm^3 | 356.3 mm^3 | 435.9 mm^3 | 574.1 mm^3 | 626.2 mm^3 | 49.8 mm^3 | 88.3 mm^3 | 130.3 mm^3 | 159.0 mm^3 | 218.8 mm^3 | 294.5 mm^3 | 343.9 mm^3 | 424.0 mm^3 | 491.2 mm^3 | −10.2% | Effect on mean tumor volume (in words) ([1]; breast cancer model, ASO alone): non-statistically significant increase in mean tumor volume; Mean Tumor Volume ([3]; Day 7): 52.7 mm^3; Mean Tumor Volume ([3]; Day 10): 69.4 mm^3; Mean Tumor Volume ([3]; Day 15): 113.7 mm^3; Mean Tumor Volume ([3]; Day 18): 79.1 mm^3; Mean Tumor Volume ([3]; Day 22): 139.5 mm^3; Mean Tumor Volume ([3]; Day 25): 149.0 mm^3; Mean Tumor Volume ([3]; Day 29): 220.1 mm^3; Mean Tumor Volume ([3]; Day 32): 249.5 mm^3; Mean Tumor Volume ([3]; Day 36): 256.6 mm^3; Mean Tumor Volume ([3]; Day 39): 239.1 mm^3; Mean Tumor Volume ([3]; Day 43): 313.2 mm^3; Mean Tumor Volume ([3]; Day 46): 292.3 mm^3; Mean Tumor Volume ([3]; Day 50): 404.0 mm^3; Percent Reduction in Mean Tumor Volumes (observed) [3]: −17.3%
